Values of other authors, collected in patent US20250375417A1, “OREXIN RECEPTOR 2 (OX2R) AGONIST FOR USE IN NARCOLEPSY TYPE 1 (NT1)” (TAKEDA PHARMACEUTICAL COMPANY LIMITED, priority 2024, published 2025).

Details: phase 2 clinical studies of firazorexton; cited from earlier work

CC(C)(O)C(=O)N1CC[C@H](NS(C)(=O)=O)[C@@H]1Cc1cccc(-c2cc(F)cc(F)c2)c1F [firazorexton]
Liver toxicity: liver toxicity was observed
